Assay results published in patent US20190247340A1, “EPILEPSY TREATMENT EMPLOYING KETOGENIC COMPOUNDS WHICH ARREST APOPTOSIS” (priority 2004, published 2019).
Values joined by “and” are separate entries in the source; they are usually repeats but may differ in a detail not shown here. Equal entries are not always repeated.

Test system: CA1 region of hippocampal organotypic cultures
Experiment: Kainic acid-induced neuronal cell death (experimental status epilepticus), propidium iodide uptake in hippocampal organotypic cultures
Assay type: cell-based, rat
Method: A seizure-induced neuronal cell death in vitro experimental model of status epilepticus was provided as follows. The neuroprotective potential of (R)-3-hydroxybutyrate sodium salt (BHB) (0.3 mM, 1 mM and 3 mM) was assessed by propidium iodide uptake into hippocampal organotypic cultures administered 1 μM KA for 24 h to induce experimental status epilepticus. Neuronal cell death is already observed at 24 h subsequent to KA-application therefore, it was of no value to administer to the cultures at this time-point. Test compound was, therefore, added to the cultures before significant neuronal cell death occurred.
Hippocampal organotypic slice cultures were prepared according to the Gähwiler roller-tube method (Gähwiler B H (1981) and Gähwiler et al (1997)) from nine rat pups aged between […].
Rat pups were killed by cervical dislocation, their brains rapidly removed and placed in a Petri dish. The meninges were removed from the caudal section of the cortex and then the brain was located with the ventral surface uppermost. Two transverse cuts were made, the first, at the level of the cerebellum to remove the brainstem, and the second, at the level of the optic chiasm to remove the forebrain. The cerebellum, midbrain and hindbrain were lifted upwards from the surrounding cortical tissue leaving one hippocampus embedded within each cortical hemisphere. An incision was made down the midline to separate the two cortical hemispheres. To separate the hippocampus from the surrounding cortical tissue three incisions were made around the hippocampus and then it was rolled out from the underlying tissue. The isolated hippocampus was then placed in a drop of ice-cold Gey's balanced salt solution containing 0.5% D-glucose (GBSS+G). The procedure was then repeated to isolate the remaining hippocampus. The whole procedure was performed using a Swift dissecting microscope and took between 10-15 mins thereby minimizing tissue deterioration.
The hippocampi were transferred to a Mcllwain tissue chopper and sectioned into a series of 400 μm thick slices. After sectioning, the hippocampi were placed in ice-cold GBSS+G and the slices gently teased apart. The slices were washed once in GBSS+G and the integrity of the slices checked under a higher magnification. If the slices had any tears, an opaque appearance or the cell body layers were not easily visible, they were discarded. A healthy slice has a yellow-brown colouration without any blackening in the cell body regions.
To adhere the hippocampal slice to a coverslip (Agar Scientific, UK), 20 μl of chicken plasma was placed in the middle of the coverslip followed by a hippocampal slice. The plasma was spread thinly over the surface of the coverslip, to ensure the slice was well coated. Then, 30 μl of thrombin (75 units/ml activity) was placed over the slice and mixed thoroughly with the chicken plasma. The plasma-thrombin mixture was left for approximately 60 s until a clot of jelly-like consistency had formed. The coverslip was then placed in a test-tube (Nunclon, UK) which contained 750 μl of pre-warmed culture media (37° C.). Culture media consisted of 50% basal media Earles, 25% Hank's balanced salt solution, 25% heat inactivated horse serum, […] L-glutamine and 0.5% D-glucose. The test tubes were sealed with a screw top lid and placed in a custom made roller-drum (Medical School Workshop, University of Nottingham) at an angle of 5°, rotating at 10 revolutions per hour in a dry incubator at 37° C.
After 48 h in vitro, 500 μl of media was removed and the cultures were incubated in culture media containing a combination of anti-mitotics, which consisted of 5-fluorodeoxyuridine, cytosine-β-D-arabino-furanoside (ARA-C) and uridine each at a concentration of 1 μM. After a further 24 h, 500 μl of media was removed and replaced with 500 μl of new culture media containing no anti-mitotics. […]

Compound	percentage propidium iodide uptake (mean) (KA 1 μM alone for 24 h, then washout, assessed at 7 d, n=12, control cultures 1.81)	percentage propidium iodide uptake (mean) (KA 1 μM alone for 24 h, assessed at 24 h, n=12, control cultures 1.68)	percentage propidium iodide uptake (mean) (KTX0101 0.3 mM added 30 mins after KA 1 μM, assessed at 24 h, n=12)	percentage propidium iodide uptake (mean) (KTX0101 0.3 mM for 7 d following KA 1 μM for 24 h, assessed at 7 d, n=12)	percentage propidium iodide uptake (mean) (KTX0101 0.3 mM for 7 d following KA 1 μM for 24 h, assessed at 7 d, n=12, listed as BHB)	percentage propidium iodide uptake (mean) (KTX0101 1.0 mM added 30 mins after KA 1 μM, assessed at 24 h, n=13)	percentage propidium iodide uptake (mean) (KTX0101 1.0 mM for 7 d following KA 1 μM for 24 h, assessed at 7 d, n=13)	percentage propidium iodide uptake (mean) (KTX0101 1.0 mM for 7 d following KA 1 μM for 24 h, assessed at 7 d, n=13, listed as BHB)	percentage propidium iodide uptake (mean) (KTX0101 3.0 mM added 30 mins after KA 1 μM, assessed at 24 h, n=13)	percentage propidium iodide uptake (mean) (KTX0101 3.0 mM for 7 d following KA 1 μM for 24 h, assessed at 7 d, n=13)	percentage propidium iodide uptake (mean) (KTX0101 3.0 mM for 7 d following KA 1 μM for 24 h, assessed at 7 d, n=13, listed as BHB)
C=C(C)[C@H]1CN[C@H](C(=O)O)[C@H]1CC(=O)O [KA, kainic acid, reference compound]	6.97±2.03% and 6.97%	8.89±1.78% and 8.89%	–	–	–	–	–	–	–	–	–
C[C@@H](O)CC(=O)[O-].[Na+] [KTX0101, sodium salt of (R)-3-hydroxybutyrate]	–	–	6.48%	1.54%	1.54±0.33% and 1.54%	4.89%	1.05%	1.05±0.29% and 1.05%	4.72%	1.25%	1.25±0.21% and 1.25%
